{"source": "patent US20200368288A1", "about": "“Hierarchic Neural Microphysiological System for Brain Function and Disorders” (The Trustees of Columbia University in the City of New York, priority 2018, published 2020)", "key": {"NNet preparations": {"tested_on": "NNet preparations", "assay": "Chronic ketamine treatment NNet model of schizophrenia pathophysiology, calcium imaging", "details": "ketamine 10 μM every 24 hours vs saline control; imaging before and 2 days after"}, "NNet preparation": {"tested_on": "NNet preparation", "assay": "Modeling epileptic seizures with NNet (4-AP local injection, picrotoxin addition)", "type": "cell-based", "method": "4-AP, a commonly used seizure inducing compound, was injected in a specific neurosphere of an NNet preparation. […] As shown in the magnified view (top row, third) these peaks are maintained during the time. […] In FIG. 6 the colored maps (bottom) show the spatial progression of the seizure waves in three different bouts (labeled as Epi. Events #1, #2, and #3). The directionality of seizure spread is maintained constant from bottom-left to top-right."}, "MoNNet neurons": {"tested_on": "MoNNet neurons", "assay": "Whole cell electrophysiology recordings in MoNNet, synaptic transmission across spheroids", "type": "cell-based, mice", "method": "Whole cell recordings were performed as described previously (Crabtree et al., 2016; Crabtree et al., 2017), using borosilicate glass pipettes (initial resistance 3-5.5 MS2) which were filled with an intracellular solution containing: K methanesulfonate 125 mM, NaCl 10 mM, CaCl2) 1 mM, MgCl2 1 mM, HEPES 10 mM, EGTA 0.1 mM, MgATP 5 mM, NaGTP 0.5 mM. The pH was adjusted to 7.2 with KOH. Spontaneous synaptic events were assessed at −70 mV (presumptive glutamatergic) and at 0 mV (presumptive GABAergic). Excitatory and inhibitory evoked synaptic responses were assessed as follows. Evoked synaptic responses across spheroid units were elicited with electric stimulation applied with a concentric bipolar stimulating electrode (tip diameter 0.125 mm, FHC, Bowdinham, Me.) positioned on a spheroid >250 μm away from the spheroid containing the recorded neuron. The stimulus was set to 10V, a duration of 100 μs and applied at 10 Hz. […] Neurons were then held in voltage-clamp at 0 mV to assess evoked inhibitory synaptic responses. For assessing neuronal excitability in current-step, action potential firing was recorded in response to incremental (20 pA steps) depolarizing current injections (500 ms duration). Bridge balance of series resistance was employed and recordings with series resistance >20 MΩ were rejected. For current-step assays, resting membrane potential was adjusted to ˜−70 mV by injection of a small standing current. For voltage steps, cells were held at −70 mV, and 10 mV steps were applied ranging from −100 mV to 50 mV. Series resistance-related errors were partially corrected by using 70% prediction and 70% series resistance compensation."}, "Setd1a+/− MoNNets": {"tested_on": "Setd1a+/− MoNNets", "assay": "Rescue of Setd1a+/- MoNNet network pathophysiology by LSD1 inhibition, Ca2+ imaging before and after treatment", "type": "cell-based, mice", "excerpt": "Taking advantage of MoNNet properties, effective in vitro models of SCZ-associated network pathophysiology (SCZ-MoNNets) were developed. SCZ is characterized by psychosis, cognitive dysfunction and a broad spectrum of complex behavioral abnormalities (Clementz et al., 2016). Several recent studies in animal models have investigated the underlying circuit pathophysiology, identifying deficits in activity synchrony and degraded ensembles (Fenelon et al., 2013; Hamm et al., 2017; Hamm et al., 2020; Marissal et al., 2018; Sigurdsson et al., 2010; Zaremba et al., 2017). Therefore, the MoNNet approach provides a well suited system to develop quantitative in vitro models of SCZ-like network function pathophysiology. We developed and characterized MoNNet preparations (SCZ-MoNNets) from two well-studied genetic models—Setd1a+/− and Df(16)A+/−, which recapitulate SCZ-related cognitive and circuitry pathophysiology (Fenelon et al., 2013; Mukai et al., 2019). […] The lower-level deviations in molecular, cellular and synaptic pathways underlying the observed alterations in network states remain to be determined and may be different for each mutation.\nHippocampal neuronal cultures were generated from E17 to E18 embryos by building upon standard cell culture techniques, as follows. Pregnant mice were anesthetized under isoflurane, and euthanized by cervical dislocation. Hippocampus were dissected in Hibernate E (Gibco) iced cold media, and incubated in 0.25% Trypsin-EDTA (Gibco) at 37° C. for […]., followed by […] DNAse I (1 μg/ml; Sigma) incubation at room temperature. Mechanical dissociation of dissected hippocampus was performed by repeated pipetting with a fire-polished glass Pasteur pipet until a homogenous cell suspension was obtained. Cell viability was determined by Trypan Blue exclusion assay. Cell solution was then centrifuged at 150 g for […], and the supernatant was removed. Resulting cell pellet was resuspended in the culture media containing Neurobasal media, 2% B27, 0.5 mM Glutamate and 1% Penicillin/Streptomycin (Gibco). Cells were infected with AAV1.Syn.GCaMP6f.WPRE.SV40 virus ((Chen et al., 2013); Pennsylvania Vector Core, Cat #:AV-1-PV2822). For single spheroid cultures, 2% agarose 96 wells (400 μm diameter) micro-molds were created by using custom casts fabricated by 3D printing (UV-resin; Formlabs 3D printer). The agarose micro molds were equilibrated in the culture medium over a 24 h period prior to plating. […]\nImaging was performed using a wide-field fluorescence microscope (Leica M165FC) equipped with a long-pass GFP filter set (Leica filter set ET GFP M205FA/M165FC), 1.6× Plan Apo objective, 3.2× zoom and sCMOS camera (Hamamatsu ORCA-Flash 4.0). Time-lapse videos were recorded at 30 Hz for ˜4.5 min at 37° C. […]"}, "LSD1": {"target": "LSD1 (Mus musculus, UniProt Q6ZQ88)", "details": "Mukai et al., 2019; cited from earlier work"}, "[1]": {"details": "picrotoxin added after 4-AP local injection"}, "[2]": {"details": "2-day treatment, TCP 600 nM, ORY-1001 0.6-0.9 nM"}}, "note": "Where two headings read alike, the source gives them in different places."}
{"compound": "CNC1(c2ccccc2Cl)CCCCC1=O", "note": "(stereo not drawn) [ketamine]", "values": [{"measurement": "correlation among neurosphere units of NNet", "setting": "NNet preparations", "result": "decreased"}]}
{"compound": "picrotoxin", "values": [{"measurement": "directionality of seizure spread", "setting": "NNet preparation; [1]", "result": "directionality becomes random"}, {"measurement": "frequency of number of events", "setting": "NNet preparation; [1]", "result": "increased frequency of number of events"}]}
{"compound": "Nc1ccncc1", "note": "[4-AP]", "values": [{"measurement": "seizure peaks", "setting": "NNet preparation; local injection in a specific neurosphere", "result": "typical high seizure peaks"}]}
{"compound": "N#Cc1cc2[nH]c(=O)c(=O)[nH]c2cc1[N+](=O)[O-]", "note": "[CNQX]", "values": [{"measurement": "evoked inhibitory synaptic transmission across spheroids", "setting": "MoNNet neurons; CNQX 10 μM blockade of glutamatergic transmission, cell held at 0 mV", "result": "robust evoked inhibitory synaptic transmission"}, {"measurement": "evoked excitatory synaptic responses", "setting": "MoNNet neurons; CNQX 10 μM washed in with ACSF, voltage-clamp at −70 mV, 10 Hz stimulation of neighboring spheroid", "result": "completely ablated"}, {"measurement": "spontaneous inhibitory synaptic events", "setting": "MoNNet neurons; CNQX 10 μM, neuron held at 0 mV", "result": "reduction"}]}
{"compound": "N[C@@H]1C[C@H]1c1ccccc1", "note": "(racemic) [TCP, Tranylcypromine]", "values": [{"measurement": "ensembles stability", "setting": "Setd1a+/− MoNNets", "result": "partial rescue"}, {"measurement": "network synchrony", "setting": "Setd1a+/− MoNNets", "result": "partial rescue"}]}
{"compound": "N[C@H]1CC[C@H](N[C@@H]2C[C@H]2c2ccccc2)CC1", "note": "[ORY-1001]", "values": [{"measurement": "ensembles stability", "setting": "Setd1a+/− MoNNets; [2]", "result": "partial rescue"}, {"measurement": "network synchrony", "setting": "Setd1a+/− MoNNets; [2]", "result": "partial rescue"}, {"measurement": "cellular and behavioral defects", "setting": "LSD1", "result": "effective in partial rescue"}]}
